This assay can be described thus: CaCO3 scale inhibition at pH 9 and 300X calcite saturation (% inhibition by calcium titration, Schwarzenbach method).

Results on one molecule are retold here after patent EP0564248A1, “N-(2-hydroxyethyl)-N-bis(methylenephosphonic acid) and corresponding N-oxide thereof for high pH scale control” (Calgon Corporation, priority 1992, dated 1993).

Experimental: PROCEDURE: Scaling water containing 250 mg/L of CO (-2)/(3) [formula] and 600 mg/L of alkalinity at a pH of 9.0 and 55°C was used to evaluate scale inhibition performance of test solutions over a 24 hr period. Test solutions were analyzed by withdrawing 10 g of test solution and adding it to the appropriate container through a 0.2 µ filter, titrating for calcium, and calculating % inhibition by the Schwarzenbach method.

Turning to `O=P(O)(O)CN(CCO)CP(=O)(O)O` [Sample No. 1, N-(2-hydroxyethyl)-N-bis(methylenephosphonic acid)], the scale inhibition by setting is: (10% Excess Ca/Alk, 25ppm) 67.8%; (10% Excess Ca/Alk, 50ppm) 85.6%; (60°C, 50ppm) 82.6%; (pH 9, 300X CaCO₃, 50ppm, 24hrs) 90.8%; (pH 9, 300X CaCO₃, 50ppm, 4 days) 87.5%.
